Assay results reported in US7824847B2, “Tissue preservation method with polyoxyethylene/polyoxypropylene copolymer” (Regents of the University of California, priority 2003, dated 2010).

Test system: bovine corneal endothelial cells
Assay: Evaluation of the endothelial cell layer in bovine corneas stored in preservation media at 4° C. (Calcein AM viability staining)
Format: cell-based
Details: DMSO at 0.5%
Procedure: Evaluations of the endothelial cell layer in bovine corneas in different media. post-incubation survival utility or usefulness for transplantation is defined as less than 3% dying and less than 1.5% missing. Missing cells leave a gap in the layer; calcein-AM staining for esterase activity is used to determine cell health. Transplant surgeons typically use missing cell counts and morphology alone as the index of health and post-incubation survival utility.
Bovine eyes were obtained from Rancho Veal, Petaluma, Calif. Two to 3 hours elapsed between death of the cattle and excision of the cornea with a 1 to 2 millimeter (mm) scleral rim from the enucleated eyes. […]
The viability of the corneal endothelium was quantified with the vital stain Calcein AM (Molecular Probes, Eugene, Oreg.). The hydrophobic and non-fluorescent Calcein AM readily diffuses across the plasma membrane and into the cytoplasm. […] The bright nuclei are easily counted. […] A Zeiss IM-35 inverted fluorescence microscope (Thornwood, N.Y.) equipped with excitation and emission filters for Green Fluorescent Protein (filter set XF100-2 from Omega Optical, Brattleboro, Vt.) was used to illuminate the half cornea. […]
For analysis, each photograph was overlaid with a sheet of transparency film. A felt-tip lab pen was used to mark cells as they were counted and scored as bright (live), dim (dying), or dark (dead or missing). […]

C[S+](C)[O-] [DMSO, dimethylsulfoxide]
effect on corneal endothelial cell survival: no effect
